Patent publication US9211310B2, “Use of a Chinese medicine composition in preparing medicaments for treating secondary prevention of myocardial infarction” (TASLY PHARMACEUTICAL GROUP CO., LTD, priority 2010, dated 2015)

System: patients after acute myocardial infarction
Assay: Life quality, Seattle Angina Questionnaire (SAQ), same clinical trial
Format: in vivo, human
Details: FAS
Description: 3508 patients who were in accordance with the diagnostic standards of AMI for 28 days to 2 years and differentiated as Qi deficiency and blood stagnation syndrome by TCM were studied. 0.5 g Chinese medicine composition prepared by the method of EXAMPLE 1 (Coded as QSYQ) was administrated half an hour after meal, 3 times per day.
There were 19 questions in the Seattle angina questionnaire (SAQ), including 5 parts: physical limitation (PL), anginal stability (AS), anginal frequency (AF), treatment satisfaction (TS) and disease perception (DP). After being given necessary explanation by doctors, the questions were answered independently by patients.
They included the overall survival time, angina pectoris score, TCM symptom score and life quality score, where angina pectoris score, TCM symptom score and life quality score were evaluated at randomization, in 1st, 3rd, 6th, 9th, 12th month after treatment and 18th month after follow-up.
All evaluation results of SAQ were described during the period of observation, and Wilcoxon rank sum test was used for inter-group comparison.
The evaluation results in the SAQ were depicted in different observations, and inter-group comparison was tested by Wilcoxon Rank-sum test.

CC(=O)Oc1ccccc1C(=O)O [Control group, aspirine]
SAQ 4th question, 1-3 times per day: number of patients (6 months after treatment): 82
SAQ 4th question, <1 time per week: % of patients (6 months after treatment): (11.98%)
SAQ 4th question, <1 time per week: number of patients (6 months after treatment): 209
SAQ 4th question, Not used: % of patients (6 months after treatment): (58.37%)
SAQ 4th question, Not used: number of patients (6 months after treatment): 1018
SAQ 4th question, ≧3 times per week: % of patients (6 months after treatment): (7.28%)
SAQ 4th question, ≧3 times per week: number of patients (6 months after treatment): 127
SAQ 4th question, ≧4 times per day: % of patients (6 months after treatment): (0.11%)
SAQ 4th question, ≧4 times per day: number of patients (6 months after treatment): 2
SAQ 5th question, 1-2 times per week: % of patients (6 months after treatment): (26.38%)
SAQ 5th question, 1-2 times per week: number of patients (6 months after treatment): 460
SAQ 5th question, 1-3 times per day: % of patients (6 months after treatment): (11.53%)
SAQ 5th question, 1-3 times per day: number of patients (6 months after treatment): 201
SAQ 5th question, <1 time per week: % of patients (6 months after treatment): (28.10%)
SAQ 5th question, <1 time per week: number of patients (6 months after treatment): 490
SAQ 5th question, No onset: % of patients (6 months after treatment): (4.30%)
SAQ 5th question, No onset: number of patients (6 months after treatment): 75
SAQ 5th question, ≧3 times per week: % of patients (6 months after treatment): (28.84%)
SAQ 5th question, ≧3 times per week: number of patients (6 months after treatment): 503
SAQ 5th question, ≧4 times per day: % of patients (6 months after treatment): (0.86%)
SAQ 5th question, ≧4 times per day: number of patients (6 months after treatment): 15
SAQ 6th question, Dissatisfied: % of patients (6 months after treatment): (0.17%)
SAQ 6th question, Dissatisfied: number of patients (6 months after treatment): 3
SAQ 6th question, Highly satisfied: % of patients (6 months after treatment): (21.62%)
SAQ 6th question, Highly satisfied: number of patients (6 months after treatment): 377
SAQ 6th question, Mostly dissatisfied: % of patients (6 months after treatment): (1.95%)
SAQ 6th question, Mostly dissatisfied: number of patients (6 months after treatment): 34
SAQ 6th question, Mostly satisfied: % of patients (6 months after treatment): (55.73%)
SAQ 6th question, Mostly satisfied: number of patients (6 months after treatment): 972
SAQ 6th question, Partly satisfied: % of patients (6 months after treatment): (20.53%)
SAQ 6th question, Partly satisfied: number of patients (6 months after treatment): 358
SAQ 7th question, Dissatisfied: % of patients (6 months after treatment): (0.11%)
SAQ 7th question, Dissatisfied: number of patients (6 months after treatment): 2
SAQ 7th question, Highly satisfied: % of patients (6 months after treatment): (25.03%)
SAQ 7th question, Highly satisfied: number of patients (6 months after treatment): 436
SAQ 7th question, Mostly dissatisfied: % of patients (6 months after treatment): (1.32%)
SAQ 7th question, Mostly dissatisfied: number of patients (6 months after treatment): 23
SAQ 7th question, Mostly satisfied: % of patients (6 months after treatment): (58.21%)
SAQ 7th question, Mostly satisfied: number of patients (6 months after treatment): 1014
SAQ 7th question, Partly satisfied: % of patients (6 months after treatment): (15.33%)
SAQ 7th question, Partly satisfied: number of patients (6 months after treatment): 267
SAQ Question 1-1 Mildly limited, number of patients (6 months after treatment): 29
SAQ Question 1-1 Mildly limited, percent of patients (6 months after treatment): (1.66%)
SAQ Question 1-1 Moderately limited, number of patients (6 months after treatment): 4
SAQ Question 1-1 Moderately limited, percent of patients (6 months after treatment): (0.23%)
SAQ Question 1-1 Not limited, number of patients (6 months after treatment): 1638
SAQ Question 1-1 Not limited, percent of patients (6 months after treatment): (93.92%)
SAQ Question 1-1 Other reasons, number of patients (6 months after treatment): 3
SAQ Question 1-1 Other reasons, percent of patients (6 months after treatment): (0.17%)
SAQ Question 1-1 Severely limited, number of patients (6 months after treatment): 1
SAQ Question 1-1 Severely limited, percent of patients (6 months after treatment): (0.06%)
SAQ Question 1-1 Slightly limited, number of patients (6 months after treatment): 69
SAQ Question 1-1 Slightly limited, percent of patients (6 months after treatment): (3.96%)
SAQ Question 1-2 Mildly limited, number of patients (6 months after treatment): 27
SAQ Question 1-2 Mildly limited, percent of patients (6 months after treatment): (1.55%)
SAQ Question 1-2 Moderately limited, number of patients (6 months after treatment): 8
SAQ Question 1-2 Moderately limited, percent of patients (6 months after treatment): (0.46%)
SAQ Question 1-2 Not limited, number of patients (6 months after treatment): 1615
SAQ Question 1-2 Not limited, percent of patients (6 months after treatment): (92.60%)
SAQ Question 1-2 Other reasons, number of patients (6 months after treatment): 6
SAQ Question 1-2 Other reasons, percent of patients (6 months after treatment): (0.34%)
SAQ Question 1-2 Severely limited, number of patients (6 months after treatment): 1
SAQ Question 1-2 Severely limited, percent of patients (6 months after treatment): (0.06%)
SAQ Question 1-2 Slightly limited, number of patients (6 months after treatment): 87
SAQ Question 1-2 Slightly limited, percent of patients (6 months after treatment): (4.99%)
SAQ Question 1-6: Mildly limited, patients (%) (6 months after treatment): (16.49%)
SAQ Question 1-6: Moderately limited, patients (%) (6 months after treatment): (11.78%)
SAQ Question 1-6: Not limited, patients (%) (6 months after treatment): (34.20%)
SAQ Question 1-6: Other reasons, patients (%) (6 months after treatment): (0.98%)
SAQ Question 1-6: Severely limited, patients (%) (6 months after treatment): (3.85%)
SAQ Question 1-6: Slightly limited, patients (%) (6 months after treatment): (32.70%)
SAQ Question 1-7: Mildly limited, patients (%) (6 months after treatment): (21.23%)
SAQ Question 1-7: Moderately limited, patients (%) (6 months after treatment): (13.48%)
SAQ Question 1-7: Not limited, patients (%) (6 months after treatment): (14.52%)
SAQ Question 1-7: Other reasons, patients (%) (6 months after treatment): (3.53%)
SAQ Question 1-7: Severely limited, patients (%) (6 months after treatment): (15.33%)
SAQ Question 1-7: Slightly limited, patients (%) (6 months after treatment): (31.93%)
SAQ Question 1-8: Mildly limited, patients (%) (6 months after treatment): (25.30%)
SAQ Question 1-8: Moderately limited, patients (%) (6 months after treatment): (16.42%)
SAQ Question 1-8: Not limited, patients (%) (6 months after treatment): (10.62%)
SAQ Question 1-8: Other reasons, patients (%) (6 months after treatment): (3.77%)
SAQ Question 1-8: Severely limited, patients (%) (6 months after treatment): (19.38%)
SAQ Question 1-8: Slightly limited, patients (%) (6 months after treatment): (24.49%)
8th question: Mostly satisfied, patients (%) (6 months after treatment, second line of the scale): (2.24%)
8th question: Dissatisfied, patients (%) (9 months after treatment): (0.34%)
8th question: Highly satisfied, patients (%) (9 months after treatment): (22.36%)
8th question: Mostly dissatisfied, patients (%) (9 months after treatment): (1.89%)
8th question: Mostly satisfied, patients (%) (9 months after treatment): (58.31%)
8th question: Partly satisfied, patients (%) (9 months after treatment): (17.09%)
9th question: Few, patients (%) (9 months after treatment): (37.79%)
9th question: Mild, patients (%) (9 months after treatment): (33.08%)
9th question: Moderate, patients (%) (9 months after treatment): (8.77%)
9th question: Severe, patients (%) (9 months after treatment): (0.97%)
9th question: Uneffective, patients (%) (9 months after treatment): (19.38%)
10th question: Dissatisfied, patients (%) (9 months after treatment): (19.55%)
10th question: Highly satisfied, patients (%) (9 months after treatment): (5.73%)
10th question: Mostly dissatisfied, patients (%) (9 months after treatment): (20.47%)
10th question: Mostly satisfied, patients (%) (9 months after treatment): (28.84%)
10th question: Partly satisfied, patients (%) (9 months after treatment): (25.40%)
11th question: Continuously worried, patients (%) (9 months after treatment): (3.44%)
11th question: No worried, patients (%) (9 months after treatment): (6.02%)
11th question: Occasionally worried, patients (%) (9 months after treatment): (41.80%)
11th question: Often worried, patients (%) (9 months after treatment): (12.33%)
11th question: Seldom worried, patients (%) (9 months after treatment): (36.41%)
SAQ 4th question, 1-2 times per week: % of patients (9 months after treatment): (15.60%)
SAQ 4th question, 1-2 times per week: number of patients (9 months after treatment): 272
SAQ 4th question, 1-3 times per week: % of patients (9 months after treatment): (4.30%)
SAQ 4th question, 1-3 times per week: number of patients (9 months after treatment): 75
SAQ 4th question, <1 time per week: % of patients (9 months after treatment): (15.14%)
SAQ 4th question, <1 time per week: number of patients (9 months after treatment): 264
SAQ 4th question, Not used: % of patients (9 months after treatment): (59.69%)
SAQ 4th question, Not used: number of patients (9 months after treatment): 1041
SAQ 4th question, ≧3 times per week: % of patients (9 months after treatment): (5.16%)
SAQ 4th question, ≧3 times per week: number of patients (9 months after treatment): 90
SAQ 4th question, ≧4 times per day: % of patients (9 months after treatment): (0.11%)
SAQ 4th question, ≧4 times per day: number of patients (9 months after treatment): 2
SAQ 5th question, 1-2 times per week: % of patients (9 months after treatment): (28.67%)
SAQ 5th question, 1-2 times per week: number of patients (9 months after treatment): 500
SAQ 5th question, 1-3 times per day: % of patients (9 months after treatment): (7.97%)
SAQ 5th question, 1-3 times per day: number of patients (9 months after treatment): 139
SAQ 5th question, <1 time per week: % of patients (9 months after treatment): (28.56%)
SAQ 5th question, <1 time per week: number of patients (9 months after treatment): 498
SAQ 5th question, No onset: % of patients (9 months after treatment): (4.47%)
SAQ 5th question, No onset: number of patients (9 months after treatment): 78
SAQ 5th question, ≧3 times per week: % of patients (9 months after treatment): (29.42%)
SAQ 5th question, ≧3 times per week: number of patients (9 months after treatment): 513
SAQ 5th question, ≧4 times per day: % of patients (9 months after treatment): (0.92%)
SAQ 5th question, ≧4 times per day: number of patients (9 months after treatment): 16
SAQ 6th question, Dissatisfied: % of patients (9 months after treatment): (0.23%)
SAQ 6th question, Dissatisfied: number of patients (9 months after treatment): 4
SAQ 6th question, Highly satisfied: % of patients (9 months after treatment): (23.62%)
SAQ 6th question, Highly satisfied: number of patients (9 months after treatment): 412
SAQ 6th question, Mostly dissatisfied: % of patients (9 months after treatment): (1.95%)
SAQ 6th question, Mostly dissatisfied: number of patients (9 months after treatment): 34
SAQ 6th question, Mostly satisfied: % of patients (9 months after treatment): (58.77%)
SAQ 6th question, Mostly satisfied: number of patients (9 months after treatment): 1025
SAQ 6th question, Partly satisfied: % of patients (9 months after treatment): (15.42%)
SAQ 6th question, Partly satisfied: number of patients (9 months after treatment): 269
SAQ 7th question, Dissatisfied: % of patients (9 months after treatment): (0.11%)
SAQ 7th question, Dissatisfied: number of patients (9 months after treatment): 2
SAQ 7th question, Highly satisfied: % of patients (9 months after treatment): (27.21%)
SAQ 7th question, Highly satisfied: number of patients (9 months after treatment): 474
SAQ 7th question, Most dissatisfied: % of patients (9 months after treatment): (1.09%)
SAQ 7th question, Most dissatisfied: number of patients (9 months after treatment): 19
SAQ 7th question, Mostly satisfied: % of patients (9 months after treatment): (59.53%)
SAQ 7th question, Mostly satisfied: number of patients (9 months after treatment): 1037
SAQ 7th question, Partly satisfied: % of patients (9 months after treatment): (12.06%)
SAQ 7th question, Partly satisfied: number of patients (9 months after treatment): 210
SAQ Question 1-1 Mildly limited, number of patients (9 months after treatment): 25
SAQ Question 1-1 Mildly limited, percent of patients (9 months after treatment): (1.43%)
SAQ Question 1-1 Moderately limited, number of patients (9 months after treatment): 5
SAQ Question 1-1 Moderately limited, percent of patients (9 months after treatment): (0.29%)
SAQ Question 1-1 Not limited, number of patients (9 months after treatment): 1643
SAQ Question 1-1 Not limited, percent of patients (9 months after treatment): (94.21%)
SAQ Question 1-1 Other reasons, number of patients (9 months after treatment): 3
